This assay deals with CEM cells HIV-1 protection, formazan growth assay. Description: NCI AIDS Antiviral Assay. As to conditions: for IC50: measured here: growth of uninfected CEM cells. The method, boiled down:
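Protection of CEM cells against HIV-1 was scored from cell growth (soluble formazan) across five concentrations, with parallel uninfected cells. Lack of protection may reflect toxicity.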

The source made the active and inactive calls.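 The calls were made as follows: active = compounds giving half or more protection of infected cells from virus-caused growth loss, again on retest; inactive = the rest.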 Where a SMILES comes first, the peptide text is derived from it. Bridges are numbered along the chain shown (N, C = ends). [ ]: non-standard residue; d: D form. The star is where a group is joined. pGlu = O=C1CC[CH](C(=O)O)N1; Cbz = O=C(OCc1ccccc1)*

`Nc1nc(=Nc2ccccc2)ss1`: the result was inactive.
As for `CC12CCCC(C(=O)O)(C1)[C@H](C(C)(C)C(=O)O)CC2` (stereo partly specified), the EC50 is more than 200 µM and the IC50 is more than 200 µM.
Turning to `COC(=O)C1CCC(=O)NCCCCC(NC(=O)OCc2ccccc2)C(=O)N1` (stereo not drawn) (Cbz-Lys-Glu-OMe; lactam 1-2; configuration not given here), the EC50 was more than 200 µM and the IC50 is more than 200 µM.
With `C1COC2(CNCC3(CNC2)OCCO3)O1`, the EC50 is more than 200 µM and the IC50 was 174 µM.
Taken in the same sequence, the figures for `CC(N)C(=O)NC(CO)C(=O)NC(Cc1ccc(O)cc1)C(=O)NC(CO)C(=O)NC(C(=O)O)C(C)O` (stereo unspecified) (H-ASYST-OH; configuration not given here) were more than 95.5 µM and more than 95.5 µM.
In the same order, the values of `CCC(=O)CCCC=C(c1cc(Cl)c(OC)c(C(=O)OC)c1)c1cc(Cl)c(OC)c(C(=O)OC)c1` are 1.45 µM and 40.7 µM.
In the same order, the values of `Cc1ccc(N2CN(c3ccc(C)cc3)CC(C)(N)C2)cc1` are more than 200 µM and 24 µM.
With `CC(C)CN1CC(=O)N2Cc3ccccc3CN2C(=O)C1`, the EC50 is more than 200 µM and the IC50 was more than 200 µM.
As to `COc1cc(/C=C\C(=O)O)ccc1O`, the EC50 is more than 200 µM and the IC50 was more than 200 µM.
Turning to `O=C1CC2(CCC(O)(c3cccc4ccccc34)C(C(=O)c3cccc4ccccc34)C2)C(=O)c2ccccc2N1` (stereo unspecified), the EC50 is more than 200 µM and the IC50 was found to be 110 µM.
Taken in the same sequence, the figures for `COC(=O)/C=C(\C)CCC1SC1(C)C` (stereo unspecified) were more than 100 µM and more than 100 µM.
Taken in the same sequence, the figures for `Nc1nc2ncn(O)c2c(=O)[nH]1` were more than 112 µM and 0.347 µM.
Regarding `COc1ccc(C2=NC(CO)[C@H](c3ccccc3)O2)cc1OC` (stereo partly specified), the EC50 was more than 219 µM and the IC50 is more than 219 µM.
Consider `c1ccc2c(c1)[nH]c1c3ccccc3sc21`, for which the EC50 was more than 200 µM and the IC50 is more than 200 µM.
On to `O=C1C2Cc3ccccc3CN2C(=O)N1CN1CCN(CN2C(=O)C3Cc4ccccc4CN3C2=O)CC1` (stereo unspecified), for which the EC50 is more than 10 µM and the IC50 is more than 10 µM.
Take `Cn1cc(NC(=O)c2cc(NC(=O)CCCCCCCCCC(=O)Nc3cc(C(=O)Nc4cc(C(=O)NCCC(=N)N)n(C)c4)n(C)c3)cn2C)cc1C(=O)NCCC(=N)N`: the EC50 is 4.37 µM and the IC50 came to 5.75 µM.
`CCCCN(C=O)CCc1ccccc1`: the EC50 is more than 1230 µM and the IC50 is more than 1230 µM.
Consider `CC(C)=CCC[C@@H](C)C1=C(O)C(Nc2ccccc2F)=C(C)C(=O)C1=O`, for which the EC50 was more than 200 µM and the IC50 was determined as 15.8 µM.
In the same order, the values of `CC(=O)C(CN(CC(C)C)CC(C)C)C(c1ccccc1)c1c(O)c2ccccc2oc1=O` (stereo unspecified) are more than 28.2 µM and more than 28.2 µM.
In the same order, the values of `Cn1cnc2[nH]c(=O)n(OS(=O)(=O)c3ccccc3)c(=O)c21` are more than 195 µM and 151 µM.
On to `c1ccc(C2=NOC3(c4ccccc4)CC(c4cccs4)Sc4ccccc4N23)cc1` (stereo unspecified), for which the EC50 is more than 200 µM and the 50% inhibitory concentration (IC50) is 70.8 µM.
Taken in the same sequence, the figures for `COc1cccc2c(NNc3ccccc3)c3ccc([N+](=O)[O-])cc3nc12` were more than 22.4 µM and 16.2 µM.
On to `CC(CC(=O)N1C2CC3CCC2(CS1(=O)=O)C3(C)C)[Si](C)(C)C` (stereo unspecified), for which the EC50 is more than 200 µM and the IC50 was found to be 74.1 µM.
Regarding `S=c1[nH]c2ccccc2c(=S)n1CN1CCCCC1`, the EC50 is more than 200 µM and the IC50 was found to be 110 µM.
In the same order, the values of `C[C@H]1[C@H](N2CCCC2)O[Si](C(C)(C)C)(C(C)(C)C)[C@@H]1C` are more than 200 µM and more than 200 µM.
For the compound `CC(=O)O[C@@H]1CC[C@]2(C)C3CC[C@]4(C)C(C(C)CCc5nc6ccccc6n5C(C)=O)CCC4C3[C@H](OC(C)=O)C[C@@H]2C1` (stereo partly specified), the EC50 was more than 50.1 µM and the IC50 worked out at 3.16 µM.
Consider `CN(C)C12CCCCC1S(=O)(=O)C2` (stereo unspecified), for which the EC50 is more than 891 µM and the IC50 was more than 891 µM.
Regarding `CC(C)C1(Cl)CCC2C3(C)CCCC(C)(C(=O)O)C3CC(Cl)C2(Cl)C1Cl` (stereo unspecified), the EC50 is more than 200 µM and the IC50 was determined as 41.7 µM.
In the same order, the values of `O=C(O)c1cc2ccccc2oc1=O` are more than 1320 µM and more than 1320 µM.
As to `c1ccc(-c2ccc(-c3cc4ccccc4[nH]3)cc2)cc1`, the EC50 was more than 200 µM and the IC50 is more than 200 µM.
As to `CCc1cc(Cc2cc(CC)c(NC(=O)C(=O)Cc3ccccn3)c(CC)c2Cl)c(Cl)c(CC)c1NC(=O)C(=O)Cc1ccccn1`, the EC50 was more than 72.4 µM and the IC50 is more than 72.4 µM.
Consider `NC1=NC(=O)C(CC(=O)Nc2ccc(Cl)cc2Cl)S1` (stereo unspecified), for which the EC50 is more than 794 µM and the IC50 was found to be 372 µM.
For the compound `COc1ccc(CSC2=C(C#N)C(=O)NC3(CCCCC3)S2)cc1`, the EC50 was more than 200 µM and the IC50 was 110 µM.
Regarding `O=[N+]([O-])C(C=C(n1nnc2ccccc21)n1nnc2ccccc21)=C(n1nnc2ccccc21)n1nnc2ccccc21`, the EC50 was more than 200 µM and the IC50 is more than 200 µM.
As for `Cc1ccc(C)c(N=C2NC(=O)C(CC(=O)Nc3ccc(Cl)cc3Cl)S2)c1` (stereo unspecified), the EC50 was more than 44.7 µM and the 50% inhibitory concentration (IC50) was found to be 19.5 µM.
Take `Cc1c([N+](=O)[O-])c(=O)oc2c(C)c3occc(=O)c3cc12`: the EC50 is more than 6.92 µM and the IC50 is more than 6.92 µM.
For the compound `Cc1ccc(C)c2c1CC(Cc1ccccc1C(=O)O)C2=O` (stereo unspecified), the EC50 was more than 200 µM and the IC50 stood at 158 µM.
Consider `Cc1ccc(S(=O)(=O)N/N=C2\CC(C)OC3=C2CCCCCC3)cc1` (stereo unspecified), for which the EC50 is more than 200 µM and the IC50 was 33.9 µM.
For `CC(NC(=O)C1CCC(=O)N1)C(=O)N1CCCC1C(N)=O` (stereo not drawn) ([pGlu]-Ala-Pro-NH2; configuration not given here), the EC50 is more than 200 µM and the IC50 is more than 200 µM.
On to `S=c1[nH]nc(-c2ccccc2Cl)o1`, for which the EC50 was more than 200 µM and the IC50 turned out to be 195 µM.
In the same order, the values of `C=CCC12CC(C)OC1=Nc1ccccc1NC2=O` (stereo unspecified) are more than 200 µM and more than 200 µM.
Taken in the same sequence, the figures for `COP(C)(=O)C1=CCN(C(=O)OCC[Si](C)(C)C)CC1` (stereo unspecified) were more than 200 µM and more than 200 µM.
In the same order, the values of `O=C1CCC2SC1CCC2=O` are more than 200 µM and more than 200 µM.
Take `Cc1cc(=O)[nH]c(NN2C(Cl)C(=O)C2c2ccccc2O)n1` (stereo unspecified): the EC50 is more than 58.9 µM and the concentration for half-maximal inhibition (IC50) was 3.63 µM.
With `CCc1nnc2sc3c(Cl)c4nn5c(CC)nnc5sc4c(Cl)c3nn12`, the EC50 is more than 200 µM and the 50% inhibitory concentration (IC50) is 11.7 µM.
Taken in the same sequence, the figures for `CC1(C)COC(c2ccc(C(=O)c3ccc(Cl)cc3)cc2)=N1` were more than 200 µM and 81.3 µM.
In the same order, the values of `CCOC(=O)Cc1nc2sc(C)c(-c3ccccc3)c2c(=O)[nH]1` are more than 110 µM and more than 110 µM.
In the same order, the values of `Cc1nc2cncnc2n(CCN2CCOCC2)c1=O` are more than 200 µM and 46.8 µM.
Take `O=C1C=CC(=O)c2c1ccc1c3ccccc3n(-c3ccccc3)c21`: the EC50 was more than 22.4 µM and the IC50 turned out to be 1.07 µM.
In the same order, the values of `Cc1ccc2nc(-c3ccc(-c4nc5ccc(C)cc5o4)c(O)c3)oc2c1` are more than 200 µM and more than 200 µM.
Consider `Cc1ccccc1NP1(=O)OCCCN1Cc1ccc(Cl)c(Cl)c1` (stereo unspecified), for which the outcome was inactive.
Same read-out and setting: for `Oc1ccc(C2=CSC3=NCCN23)cc1` the value was “inactive”.
Take `NCCCCCCn1c(-c2ccc(Br)cc2)csc1=Nc1ccccc1`: the EC50 is more than 200 µM and the IC50 worked out at 3.55 µM.
Turning to `Cn1c(=O)c2c(ncn2CC(=O)NC23CC4CC(CC(C4)C2)C3)n(C)c1=O`, the outcome was inactive.
As for `O=C(Nc1ccccc1)c1nn(-c2cc(S(=O)(=O)O)c([N+](=O)[O-])cc2Cl)[n+](-c2cc(S(=O)(=O)[O-])c([N+](=O)[O-])cc2Cl)n1`, the concentration giving a half-maximal response (EC50) was 64.6 µM and the IC50 was more than 100 µM.
In the same order, the values of `CCOP(=O)(OCC)O/C(C)=C\C(=O)OC` are more than 501 µM and more than 501 µM.
In the same order, the values of `O=C(Nc1nc2ccc(Cl)cc2[nH]1)c1ccccc1O` are more than 200 µM and 12 µM.
Taken in the same sequence, the figures for `Cc1cn(COCCCO[Si](C)(C)C(C)(C)C)c(=O)[nH]c1=O` were 112 µM and 174 µM.
For the compound `CC(=O)Oc1cccc2c1C(=O)C1CC(O)C(O)C3OC(C)(C)OC2(C)C13` (stereo unspecified), the EC50 was more than 468 µM and the IC50 was more than 468 µM.
For `NC(CSCCSCC(N)C(=O)O)C(=O)O` (stereo unspecified), the EC50 was more than 10 µM and the IC50 was more than 10 µM.
For `C/C(=N/OC(=O)N(C)C)c1cccc(Cl)c1`, the EC50 was more than 200 µM and the IC50 is 166 µM.
Turning to `Brc1c(OCc2ccccc2)ccc2ccccc12`, the EC50 is more than 200 µM and the IC50 was found to be 191 µM.
In the same order, the values of `CC(C)NC(=O)OCc1c(COC(=O)NC(C)C)n(C)c2c1ccc1ccccc12` are more than 174 µM and 0.0813 µM.
Regarding `O=c1[nH]n(Cc2ccccc2Cl)c2ccccc12`, the EC50 was more than 200 µM and the IC50 was more than 200 µM.
With `COc1cc([C@H]2CC(=O)C[C@@H](c3cc(OC)c(OC)c(OC)c3)C23C(=O)c2ccccc2C3=O)cc(OC)c1OC`, the EC50 is more than 200 µM and the IC50 is more than 200 µM.
In turn, `CC(=O)Nc1ccc([As](=O)(O)O)cc1[N+](=O)[O-]` yielded a concentration giving a half-maximal response (EC50) of more than 200 µM and an IC50 of more than 200 µM.
`COc1ccc2c(c1O)-c1c(O)cccc1CCN(C)CC2`: the EC50 is more than 200 µM and the IC50 was more than 200 µM.
Take `O=C(CC1C(=O)c2ccccc2C1=C1C(=O)c2ccccc2C1=O)c1ccccc1` (stereo unspecified): the EC50 is more than 9.55 µM and the IC50 came to 5.5 µM.
Taken in the same sequence, the figures for `CC(C)(Oc1ccc(Cl)cc1)C(=O)N(C(=O)N1CCC(c2ccccc2)CC1)c1ccccc1` were more than 200 µM and 7.41 µM.
In the same order, the values of `CCN(CC)CC(=O)NC1c2ccccc2Sc2c(C)cccc21` (stereo unspecified) are more than 148 µM and 60.3 µM.

The record behind these values is PubChem BioAssay AID179 (DTP/NCI, 2004).
